Laboratory results published in US20220133717A1, “RABEXIMOD IN THE TREATMENT OF RHEUMATOID ARTHRITIS” (CYXONE AB, priority 2020, published 2022).

Experiments:
healthy male volunteers = assay: Phase 1 clinical trial: safety and tolerability of single and multiple oral rising doses; type: in vivo, human
Text: The Phase 1 study assessed the safety, tolerability, pharmacokinetics and pharmacodynamics of single and multiple oral rising doses of Rabeximod (in a capsule formulation) in healthy male volunteers. The study also included an open-label, randomised, two-period crossover part that was designed to investigate the effect of food on the pharmacokinetics of Rabeximod. In total, 87 healthy male subjects were enrolled into the study.

[1] = system: patients with moderate or severe active rheumatoid arthritis; assay: Phase II clinical trial: efficacy (ACR20/50, DAS28, EULAR response, ACR components); type: in vivo, human
Procedure: The primary objective of this study was to evaluate the efficacy (American College of Rheumatology 20) of Rabeximod administered orally once daily for 12 weeks in combination with a stable dose of methotrexate in patients with moderate or severe active rheumatoid arthritis. Efficacy was evaluated by American College of Rheumatology 20 (66/68 joint count) after 12 weeks of treatment.
The primary endpoint of this study is the American College of Rheumatology (ACR20) 20 improvement measured after 12 weeks of treatment with study drug. The ACR20 is a composite score defined as an improvement of 20% in the number of swollen and tender joints and a 20% improvement in 3 of the following 5: • Patient self-assessed disability by modified Health Assessment Questionnaire (mHAQ) • Physician Global assessment • Subject Global assessment • Patient pain assessment • Acute phase reactant (C-reactive protein [CRP]) Secondary efficacy endpoints were as follows: • ACR20 improvement measured after 4 and 8 weeks of treatment • Subgroup analysis of ACR20 results from patients enrolled with baseline CRP >1.5 mg/dL. • ACR50/70 improvement measured after 4, 8 and 12 weeks • Original Disease Activity Score (DAS) change from baseline (according to the European League Against Rheumatism [EULAR] Response Criteria). Note: the Original DAS was replaced with DAS28 • Change from baseline in: number of swollen/tender joints, morning stiffness duration. Subject and Physician Global assessments, pain assessed by Visual Analogue Scale (VAS), self-assessed physical disability (mHAQ), erythrocyte sedimentation rate (ESR) and CRP • The evaluation of pharmacokinetic (PK) and pharmacodynamic (PD) high sensitive CRP, TNF-a, interleukin-6 [IL-6] and anti-cyclic citrullinated peptide antibody [anti-CCP]) over time
This was a multicentre, multinational, dose-ranging, randomised, double-blind, multiple dose, placebo-controlled, parallel-group study of Rabeximod administered orally in a total of 225 enrolled patients with moderate or severe active RA. All patients must have been receiving weekly methotrexate treatment for at least 16 weeks (with unchanged doses for at least 8 weeks) up to Day 0 of study.
Diagnosis of RA was based on the American Rheumatism Association (ARA) 1987 revised criteria, having an ACR global functional class of 1 to 3, stable methotrexate dose of at least 15 mg per week and central laboratory CRP level at study entry of at least 1.5 mg/dL and clinical findings of active disease (at least 6 swollen and 6 tender joints to palpation). Individual patient duration in the study was approximately 126 days (a 14-day screening period, an 84-day treatment period [12 weeks], and a 28 day [4-week] follow-up period).
After meeting the inclusion and exclusion criteria and providing informed consent, patients were randomly assigned (1:1:1:1 ratio) to receive 1 of the following treatments: • 6.25 mg Rabeximod • 15 mg Rabeximod • 37.5 mg Rabeximod • Placebo
An assessment of tender and swollen joints was performed for the ACR response criteria. Joints to be evaluated for disease activity assessment (using the ACR 66/68 joint count) included the following: temporomandibular, sternoclavicular, acromioclavicular, shoulder, elbow, wrist, all 5 metacarpophalangeal joints, 4 proximal interphalangeal joints, 4 distal interphalangeal, thumb interphalangeal joint, hip (for tenderness only), knee, ankle, tarsus, 5 metatarsophalangeal, 4 proximal interphalangeal and foot thumb interphalangeal joints at each side. In accordance with the protocol, an independent joint reviewer performed the rheumatology examination, where possible. If an independent joint reviewer was not available, the same examiner performed all rheumatology examinations for a patient throughout the study.
Patient satisfaction in performing activities of daily living was assessed using the mHAQ. […]

For `Cc1cc2nc3c4cc(Cl)ccc4n(CC(=O)NCCN(C)C)c3nc2cc1C` [Rabeximod, 9-Chloro-2,3-dimethyl-6-(N,N-dimethylaminoethylamino-2-oxoethyl)-6H-indolo-[2,3-b]quinoxaline], the tolerability (healthy male volunteers; multiple dose of 600 mg loading followed by 100 mg) was “less well tolerated due to phototoxicity reactions”, the tolerability (healthy male volunteers; multiple oral doses up to a 200 mg loading dose followed by 50 mg maintenance dose) was “well tolerated” and the tolerability (healthy male volunteers; single dose of 600 mg) was “less well tolerated due to phototoxicity reactions”. For the same compound, the tolerability (healthy male volunteers; single oral doses up to 400 mg) was “well tolerated”, the “percentage mean reduction in joint pain, comparison of dose groups” value ([1]; 15 mg group) was “best results” and the “percentage of patients achieving ACR50, comparison of dose groups” value ([1]; 15 mg group) was “best results”. The “reduction in duration of morning stiffness, comparison of dose groups” value ([1]; 15 mg group, especially at week 16) was “best results”, the “percentage of patients achieving ACR50 response compared with placebo” value ([1]; "At Week" (number not given), 6.25, 15 and 37.5 mg groups) was “higher percentage” and the “change from baseline in each component of the ACR response (joint count 66/68, Global assessments VAS, joint pain, HAQ-DI, CRP, ESR)” value ([1]; Rabeximod groups) was “notable decrease (improvement)”. For the same compound, the “change in mean DAS28 score from baseline” value ([1]; Week 12, 6.25 mg group (placebo −0.983)) was −1.063 points, the “change in mean DAS28 score from baseline” value ([1]; Week 12, 15 mg group (placebo −0.983)) was −1.214 points and the “change in mean DAS28 score from baseline” value ([1]; Week 12, 37.5 mg group (placebo −0.983)) was −1.204 points. For the same compound, the “proportion of patients achieving ACR20 compared with placebo” value ([1]; Week 12, Rabeximod groups) was “larger proportion”, the “increases in the proportions of patients achieving ACR50” value ([1]; Week 16) was “greater” and the “percentage mean reduction from baseline in swollen (66) and tender (68) joint counts, Physician and Subject Global assessments” value ([1]; Week 16) was “notable improvements”. For the same compound, the “percentage of patients achieving a good or moderate EULAR response” value ([1]; Week 16, 6.5 mg group (placebo 38.5%)) was 37.8%, the “proportions of patients achieving ACR20, comparison of dose groups” value ([1]; Week 16, 15 mg group) was “best results” and the “reduction in swollen/tender joint counts and Global assessments, comparison of dose groups” value ([1]; Week 16, 15 mg group) was “best results”. For the same compound, the “percentage of patients achieving a good or moderate EULAR response” value ([1]; Week 16, 15 mg group (placebo 38.5%)) was 67.7%, the “percentage of patients achieving a good or moderate EULAR response” value ([1]; Week 16, 37.5 mg group (placebo 38.5%)) was 55.8% and the “proportions of patients achieving ACR20” value ([1]; Week 16, Rabeximod groups) was “continued to increase”. The “duration of morning stiffness compared with placebo” value ([1]; majority of time points, Rabeximod groups) was “greater reductions (improvement)”, the “improvement in symptoms compared with placebo (plus methotrexate)” value ([1]; onset at least 8-12 weeks after first dose, further improvement at Week 16) was “greater improvement” and the “percentage mean reduction from baseline in joint pain” value ([1]; week 1) was “notable”.
